Tested on: Xylella fastidiosa (Xf)
Type: cell-based
Details: crude ethyl acetate extract of culture supernatant; activity traced to metabolite by NMR and MS

C/C=C/c1cc2c(c(=O)o1)C(=O)[C@@H](O)[C@H](C)O2 [radicinin]
anti-Xf activity of extract / metabolite: inhibitory activity
